US20240391892A1, “A SMALL MOLECULE COMPOUND AND ITS USE AND PREPARATION METHOD” (SHANGHAI COACHCHEM TECHNOLOGY CO., LTD, priority 2022, published 2024)
Where “and” joins values, the source holds several entries; their conditions need not be identical. Equal values may be shown once.

Key:
HaCat cells = assay: Intracellular ROS scavenging test in UVB-irradiated HaCat cells; type: cell-based, human; settings: UVB 20 mJ/cm2, 24 hours incubation, vs UVB control, p<0.001
Description: Among these factors, UV radiation stands as the most significant contributor. Skin exposed to UV radiation generates an excess of reactive oxygen species (ROS) within cells, triggering the expression of genes related to aging, instigating an inflammatory cascade, and reducing the expression of elastin and collagen proteins, leading to manifestations of photoaging like skin laxity and wrinkles. Photoaging predominantly occurs in the dermis.
UVB irradiation is administered to immortalized human keratinocytes (HaCat cells) to induce intracellular reactive oxygen species (ROS) generation. The UVB dose applied to HaCat cells is 20 mJ/cm2. Following the UVB treatment, varying concentrations of Retinyl 4-t-Butylcyclohexanol test samples are added to the cells and incubated for 24 hours. ROS levels within the cells are assessed using a ROS detection kit.
Graph Pad Prism was used for statistical plotting, and the results were presented as Mean±SD. Statistical analysis was conducted using the t-test. A significance level of p<0.05 was considered statistically significant, where *p<0.05, ** p<0.0 1 (0.005<** p<0.01), and *** p<0.001, indicating increased significance as the p-value decreases. When employing the t-test for statistical analysis, the comparison between the UVB control group and the Control group was represented as # (p<0.001 indicated as ###). […]

[1] = In vitro DPPH free radical scavenging test; type: biochemical; set-up: DPPH Free Radical Scavenging Rate (%v/v): unit not given here; settings: for DPPH Free Radical Scavenging Rate (%v/v): mean ± SD; for DPPH Free Radical Scavenging Rate (%): replicate wells
Text: The DPPH radical scavenging assay is an in vitro method used to evaluate antioxidant activity. DPPH is a stable free radical in organic solvents and appears purple in methanol or ethanol, with maximum absorption at a wavelength of 517 nm. The DPPH assay is based on the ability of an antioxidant to donate an electron to the DPPH radical, converting its purple color to yellow. The degree of absorbance change at 517 nm corresponds to the extent of the free radical scavenging activity, meaning the stronger the scavenging ability of the antioxidant, the lower the absorbance.
Using ascorbic acid (VC) as a system reference, dilute it with PBS to obtain five concentrations: 12.5, 25, 50, 100, and 200 μg/mL. Perform the test and calculations according to the procedure outlined in 3.3.2. Plot the reference curve with the concentration of the reference substance on the x-axis and the DPPH free radical scavenging rate on the y-axis.
Prepare the samples into the respective concentrations of test solutions. Prepare the reaction system by adding the specified amount of each reagent mentioned in Table 1, mix thoroughly. For each concentration, set up three replicate wells and one blank control well.
The reaction system is placed at room temperature and allowed to react in the dark for 30 minutes. After the reaction is complete, the absorbance (OD value) is measured at 515 nm. The formula to calculate the scavenging rate of the sample against DPPH free radicals is as follows:
[formula] [formula] • Where: • C1=Absorbance value of the blank with DPPH • C2=Absorbance value of the blank without DPPH • T1=Absorbance value of the sample with DPPH • T2=Absorbance value of the sample without DPPH

[2] = Stability test under light and temperature, content by HPLC-DAD; type: physicochemical
Description: To compare the stability of Retinyl-trans-4-tert-Butylcyclohexanol and retinol […] under different conditions.
A certain amount of retinol and Retinyl-trans-4-tert-Butylcyclohexanol is taken and placed under conditions of light exposure, 4° C., 25° C., 45° C., and 50° C. for 28 days. Samples are periodically collected to determine their content and examine the influence of light and temperature on their stability.
High-Performance Liquid Chromatography with Diode Array Detection (HPLC-DAD), Electronic Balance (precision of 0.01 mg), Chromatographic Column (Welch Ultimate series XB-C18 column, 250 mm*4.6 mm, 5 μm), Several volumetric flasks.
Accurately weigh approximately 0.1g of Retinyl-trans-4-tert-Butylcyclohexanol samples obtained under conditions of light exposure, 4° C., 25° C., 45° C., and 50° C. into a 100 mL brown volumetric flask. Add an appropriate amount of acetonitrile while avoiding light, ultrasonicate, dilute to the mark, shake well, and prepare two parallel samples for each condition.
Accurately weigh approximately 0.1 g of retinol samples obtained under conditions of light exposure, 4° C., 25° C., 45° C., and 50° C. into a 100 mL brown volumetric flask. Add an appropriate amount of acetonitrile while avoiding light, ultrasonicate, dilute to the mark, shake well, and prepare two parallel samples for each condition.
Operate according to the procedures for high-performance liquid chromatography (HPLC) usage and maintenance: • I) Run the blank solvent, inject 2 times, record the chromatogram for up to 30 minutes; • II) Run at least 3 injections of the control solution 1, record the chromatogram for up to 30 minutes; • III) Run the control solution 2, inject 2 times, record the chromatogram for up to 30 minutes; • IV) Inject 2 samples of the test solution, record the chromatogram for up to 30 minutes; • V) Adjust the chromatogram scale, integrate, and print. […]

| SMILES | UVB-induced intracellular ROS levels (HaCat cells) | DPPH free radical scavenging compared to the control group ([1]; concentrations 0.02% to 4%, p<0.001) | DPPH Free Radical Scavenging Rate (%v/v) ([1]; sample concentration 0.02 %v/v) | DPPH Free Radical Scavenging Rate (%v/v) ([1]; sample concentration 0.1 %v/v) | DPPH Free Radical Scavenging Rate (%v/v) ([1]; sample concentration 0.5 %v/v) | DPPH Free Radical Scavenging Rate (%v/v) ([1]; sample concentration 2 %v/v) | DPPH Free Radical Scavenging Rate (%v/v) ([1]; sample concentration 4 %v/v) | Content after storage ([2]; 28 days at 4° C.) | Content after storage ([2]; 28 days at room temperature) | Stability compared with retinol ([2]; light exposure, room temperature, 45° C. and 50° C., 28 days, not at 4° C.) | DPPH Free Radical Scavenging Rate (%) ([1]; concentration 12.5 μg/mL) | DPPH Free Radical Scavenging Rate (%) ([1]; concentration 25 μg/mL) | DPPH Free Radical Scavenging Rate (%) ([1]; concentration 50 μg/mL) | DPPH Free Radical Scavenging Rate (%) ([1]; concentration 100 μg/mL) | DPPH Free Radical Scavenging Rate (%) ([1]; concentration 200 μg/mL) |
| --- | --- | --- | --- | --- | --- | --- | --- | --- | --- | --- | --- | --- | --- | --- | --- |
| CC1=C(/C=C/C(C)=C/C=C/C(C)=C/C(=O)O[C@H]2CC[C@H](C(C)(C)C)CC2)C(C)(C)CCC1 [Retinyl 4-trans-t-Butylcyclohexanol, retinoic acid trans-4-tert-butylcyclohexyl ester] | effectively reduced | statistically significant increase | 9.87 ± 3.44 | 15.91 ± 1.25 | 36.72 ± 1.98 | 48.12 ± 1.07 | 83.96 ± 1.22 | above 98% | above 98% | significantly higher |  |  |  |  |  |
| O=C1O[C@H]([C@@H](O)CO)C(O)=C1O [ascorbic acid] |  |  |  |  |  |  |  |  |  |  | 20.55% and 18.55% and 20.32% | 30.26% and 31.17% and 32.98% | 64.58% and 65.09% and 62.73% | 101.32% and 95.11% and 97.07% | 101.28% and 92.01% and 108.75% |
